Experimental data published in patent US20110033946A1, “DETECTION OF SHORT-CHAIN FATTY ACIDS IN BIOLOGICAL SAMPLES” (HEMAQUEST PHARMACEUTICALS, INC., priority 2009, published 2011).
Several values for one entry are separate records, joined by “and”; a condition that tells them apart may be missing. Equal values may be shown once. Read-outs that look alike come from different tables or passages of the source.

What was measured:
[1] = Freeze/thaw cycle stability in rat plasma; format: physicochemical; details: three freeze/thaw cycles at approximately −70° C.
Procedure: (§1) For the remaining validation tests, a calibration curve and triplicates QCs at the low, mid and high levels were analyzed with each sample set. The following samples were also analyzed either in conjunction with one of the precision and accuracy runs or in one of the additional validation runs: Samples from six lots of control rat plasma for specificity; Samples from six lots of control rat plasma fortified with internal standard for specificity; Two concentration levels of unextracted QC-samples in triplicate (solvent standards) were analyzed for the evaluation of the recovery of sodium 2,2-dimethylbutyrate and DMV in rat plasma; Two levels of QC samples (Low QC and High QC in triplicate) were subjected to three freeze/thaw cycles at approximately −70° C. prior to extraction to evaluate freeze/thaw stability; Two levels of QC samples (Low QC and High QC in triplicate) were placed on the bench top for approximately 17 hours prior to extraction for the evaluation of the bench top stability; Triplicate low QC samples and triplicate high QC samples were stored for one month and three months in a freezer at approximately −70° C., and then extracted and analyzed to evaluate long term stability in rat plasma; Three aliquots of a dilution QC sample diluted 10-fold.
The stability of sodium 2,2-dimethylbutyrate in rat plasma was evaluated at approximately −70° C. for three cycles using QC-Low and QC-High samples in triplicate. The freeze time was at least 12-24 hours, with a minimum thaw time of one hour. The CV % values for the QC-Low and QC-High stability samples are 13.3% and 4.6%, respectively. To calculate the RE %, the measured mean concentration was compared to the nominal concentration.

[2] = Extract autosampler stability (human plasma extract); format: physicochemical; details: for Extract autosampler stability, Mean concentration / Extract autosampler stability, RE % (mean vs nominal) / Extract autosampler stability, concentration found (replicate): at least 71 hours in autosampler, ambient
Procedure: (§2) The following samples were also analyzed either in conjunction with one of the precision and accuracy runs or in one of the additional validation runs. Samples from six lots of control human plasma for specificity. Samples from six lots of control human plasma fortified with internal standard for specificity. Two concentration levels of unextracted QC-samples in triplicate (solvent standards) were analyzed for the evaluation of the recovery of sodium 2,2-dimethylbutyrate and DMV in human plasma. Two levels of QC samples (Low QC and High QC in triplicate) were subjected to three freeze/thaw cycles at approximately −70° C. prior to extraction to evaluate freeze/thaw stability. Two levels of QC samples (Low QC and High QC in triplicate) were placed on the bench top for approximately 17 hours prior to extraction for the evaluation of the bench top stability. Triplicate low QC samples and triplicate high QC samples were stored for one month and three months in a freezer at approximately −70° C., and then extracted and analyzed to evaluate long term stability in human plasma. Two levels of extracted QC samples (Low QC and High QC) were re-analyzed after approximately 71 hours in the autosampler at room temperature to evaluate the extract autosampler stability. Two levels of extracted QC samples (Low QC and High QC) were re-analyzed after approximately 8 hours in the freezer at approximately −20° C. to evaluate the extract freeze stability. Three aliquots of a dilution QC sample diluted 10-fold. Triplicate dilutions of the old stock solution (stored at approximately 4° C.) and new stock solutions prepared at intervals of two weeks and one month. Statistical calculations in the report tables were calculated from unrounded concentration values taken directly from the raw data. The concentration values were rounded for display purposes.
After extraction, the QC samples were analyzed and left in the autosampler for at least 71 hours, then re-injected onto the LC-MS/MS. Triplicate QC-Low and QC-High samples were analyzed for the autosampler stability determination. The CV % values for the QC-Low and QC-High stability samples are 7.5% and 6.4%, respectively. To calculate the RE %, the measured mean concentration was compared to the nominal concentration. The RE % values for the QC-Low and QC-High stability samples are 1.9% and 4.6%, respectively.

[3] = Storage stability of quality control sample in human urine at −20° C.; format: physicochemical; details: storage temperature of −20° C.
Procedure: In method I, the mobile phase of liquid chromatography was run on 0.1% formic acid in acetonitrile, and the elution volume was 10 ul. In method II, the mobile phase was run in 0.1% formic acid in methanol/water (98/2, volume to volume), and the elution volume was 5 ul.

[4] = format: physicochemical, rat; details: for Mean concentration, QC-Low / RE %, QC-Low / Measured concentration, QC-Low: nominal 0.60 μg/mL; for Measured concentration, QC-Low / Measured concentration, QC-High: individual replicates; for Mean concentration, QC-High / RE %, QC-High / Measured concentration, QC-High: nominal 40.0 μg/mL; for Long-term freezer stability, RE %: rat, 0.6 μg/mL
Procedure: as §1
QC-Low and QC-High plasma samples, which had been stored in a freezer at approximately −70° C. for one month and three months (98 days), were extracted in triplicate and analyzed. At the one month interval, the RE % was −24.1% for the QC-Low level. This may have been an anomaly since at the QC-Low level for the three month interval, the RE % was 4.1%. All CV % values and RE % values at the 98 day interval were within the acceptance criteria (≦15% and ±15% respectively). Therefore, sodium 2,2-dimethylbutyrate can be considered stable in rat plasma at approximately −70° C. for at least […].

[5] = format: physicochemical, human; details: for Long-term freezer stability, Mean concentration / Long-term freezer stability, RE % (mean vs nominal): human
Procedure: as §2
QC-Low and QC-High plasma samples, which had been stored in a freezer at approximately −70° C. for one month and three months, were extracted in triplicate and analyzed. The CV % values for the QC-Low and QC-High stability samples range from 4.0% to 11.1%. To calculate the RE %, the measured mean concentration was compared to the nominal concentration. The RE % values for the QC-Low and QC-High stability samples range from −13.7% to 4.1%. All CV % values and RE % values are within the acceptance criteria (≦15% and ±15% respectively).

[6] = rat plasma, approximately −70° C., 1 Month Interval
[7] = rat plasma, approximately −70° C., 3 Month Interval

## CCC(C)(C)C(=O)[O-].[Na+] [Sodium 2,2-Dimethylbutyrate]
[1]
  Stability after freeze/thaw cycles: stable
[1]; QC-High, nominal 40.0 μg/mL
  Freeze/thaw cycle stability, Mean concentration: 41.2 µg/mL
  Freeze/thaw cycle stability, RE % (mean vs nominal): 3.1%
  Freeze/thaw cycle stability, concentration found (replicate): 41.7 µg/mL and 39.2 µg/mL and 42.9 µg/mL
[1]; QC-Low, nominal 0.60 μg/mL
  Freeze/thaw cycle stability, Mean concentration: 0.575 µg/mL
  Freeze/thaw cycle stability, RE % (mean vs nominal): −4.1%
  Freeze/thaw cycle stability, concentration found (replicate): 0.491 µg/mL and 0.595 µg/mL and 0.640 µg/mL
[2]; ambient storage in the autosampler
  Time stable in the extract in the autosampler: at least 71 hours
[2]; QC-High, nominal 40.0 μg/mL
  Extract autosampler stability, Mean concentration: 41.8 µg/mL
  Extract autosampler stability, RE % (mean vs nominal): 4.6%
  Extract autosampler stability, concentration found (replicate): 42.9 µg/mL and 43.8 µg/mL and 38.8 µg/mL
[2]; QC-Low, nominal 0.60 μg/mL
  Extract autosampler stability, Mean concentration: 0.611 µg/mL
  Extract autosampler stability, RE % (mean vs nominal): 1.9%
  Extract autosampler stability, concentration found (replicate): 0.663 µg/mL and 0.575 µg/mL and 0.596 µg/mL
[3]
  Time quality control sample is stable: at least 111 days
[4]; [6]
  Mean concentration, QC-Low: 456 ng/mL
  RE %, QC-Low: −24.1%
  Measured concentration, QC-Low: 0.410 µg/mL and 0.484 µg/mL and 0.473 µg/mL
  Mean concentration, QC-High: 34700 ng/mL
  RE %, QC-High: −13.3%
  Measured concentration, QC-High: 35.4 µg/mL and 34.3 µg/mL and 34.4 µg/mL
[4]; [7]
  Mean concentration, QC-Low: 620 ng/mL
  RE %, QC-Low: 4.1%
  Measured concentration, QC-Low: 0.663 μg/mL and 0.605 μg/mL (2×)
  Mean concentration, QC-High: 37200 ng/mL
  RE %, QC-High: −7.1%
  Measured concentration, QC-High: 38.0 μg/mL (2×) and 35.5 μg/mL
[4]; rat plasma, approximately −70° C.
  Time stable in freezer: at least 99 days
[4]; 1 month
  Long-term freezer stability, RE %: −24.1%
[4]; 98 days
  Long-term freezer stability, RE %: 4.1%
[5]; human plasma, approximately −70° C.
  Time stable in freezer: up to three months
[5]; 1 month, 0.6 μg/mL
  Long-term freezer stability, Mean concentration: 0.552 µg/mL
  Long-term freezer stability, RE % (mean vs nominal): −7.9%
[5]; 1 month, 40 μg/mL
  Long-term freezer stability, Mean concentration: 38.2 µg/mL
  Long-term freezer stability, RE % (mean vs nominal): −4.6%
[5]; 3 months, 0.6 μg/mL
  Long-term freezer stability, Mean concentration: 0.624 µg/mL
  Long-term freezer stability, RE % (mean vs nominal): 4.1%
[5]; 3 months, 40 μg/mL
  Long-term freezer stability, Mean concentration: 34.5 µg/mL
  Long-term freezer stability, RE % (mean vs nominal): −13.7%
